Test results as given in publication PMC11501026, “L-Arginine and asymmetric dimethylarginine (ADMA) transport across the mouse blood-brain and blood-CSF barriers: Evidence of saturable transport at both interfaces and CNS to blood efflux” (PLOS ONE, 2024).
Structures can show the parent of a compound that is named as a salt. Where two headings read alike, the source gives them in different places.

What was measured:
[1] = in situ brain/choroid plexus perfusion: CNS uptake of [^3H]-arginine, [^3H]-ADMA and [^14C]-sucrose (multiple-time and single-time uptake analysis); settings: for Kp at 20 min, 62.5 nM / Kp at […], 62.5 nM / Kp at […] / Kp at 30 min, 62.5 nM / Kp at 10 min: male, BALB/c, mouse, 5ml/min; for Kp at […], 62.5 nM / Kp at […]: 2.5 mins; for Kp at 10 min: CONTROL
Procedure: All animals used in procedures were adult male BALB/c mice (between 23 g and 25 g) sourced from Harlan Laboratories, Oxon, UK, unless otherwise stated.
Animals were weighed immediately before the administration of the anaesthetic to ensure correct dosage. Domitor® (medetomidine hydrochloride) and Vetalar® (ketamine) were both purchased from Harlan Laboratories (Cambridge, UK). All animals were terminally anaesthetised (2 mg/kg Domitor® and 150 mg/kg Vetalar® injected intraperitoneally), and a lack of self-righting and paw-withdrawal reflexes (as surrogate indicators of consciousness) thoroughly checked prior to and during all procedures. If needed, additional anaesthetic was administered via the same route. […] At the end of the in situ brain perfusion procedure the animal was killed by decapitated under non-recovery anaesthesia. Animals were heparinised with 100 units heparin (in 0.9% m/v NaCl(aq), Harlan Laboratories; Oxon, UK), administered via the intraperitoneal route prior to surgery.
The in situ brain/choroid plexus perfusion method is designed to directly perfuse the brain with artificial plasma via a cannula placed in the heart. Artificial plasma is prepared to mimic the ionic composition of blood, and transporter inhibitors can be added in known concentrations and delivered to the brain for defined periods of time.
The left ventricle of the heart was cannulated with a 25G x 10 mm butterfly-winged needle connected to the perfusion circuit. […] The right atrium of the heart was sectioned to allow outflow of the artificial plasma. […] Radiolabelled and unlabelled test molecules were infused into the inflowing artificial plasma for periods up to 30 minutes.
At the set perfusion time a CSF sample was taken by inserting a pulled glass micropipette connected to silicon tubing and a syringe into the cisterna magna. Gentle suction was applied, and CSF was withdrawn. Only clear CSF samples were processed and taken for analysis. Samples contaminated with blood were discarded. The animal was then decapitated and the brain removed. Specific brain samples including the circumventricular organs (CVOs) were taken using a Leica S4E L2 stereomicroscope (Leica; Buckinghamshire, UK). The brain samples included the frontal cortex, caudate nucleus, occipital cortex, hippocampus, hypothalamus, thalamus, pons and cerebellum. The CVOs included the choroid plexus, pituitary gland and pineal gland.
All samples (brain regions, capillary depletion brain homogenate, pellet and supernatant, CVOs, CSF and plasma samples) were solubilised in 0.5 mL tissue solubiliser (Solvable; Perkin-Elmer; Boston, MA, USA). After incubating the samples at room temperature for 48 h, 4 mL scintillation fluid (Lumasafe®; Perkin-Elmer; Boston, MA, USA) was added to each before vigorous vortexing.

[2] = self-inhibition, in situ perfusion: [^3H]-ADMA with 100 μM unlabelled ADMA; type: in vivo, mouse; settings: male, BALB/c, mouse, other: in situ brain perfusion, with unlabelled ADMA 100 µM, 10 mins, Balb/c ♂, 5ml/min
Procedure: (§1) Self-inhibition experiments were also performed. […] Cross-competition experiments were also performed.
(§2) The percentage change in the RTissue uptake values achieved in the absence or presence of an unlabelled inhibitor can be calculated by means of Eq 4.
(§3) %change=RTissue−RInhibition/RTissue×100 Eq 4
(§4) We define RInhibition as the RTissue uptake in the presence of an inhibitor in the artificial plasma.
(§5) A decrease in the uptake of radiolabelled solute in the presence of unlabelled inhibitor is indicative of a saturable influx transport system. Conversely, an increase in the uptake of radiolabelled solute in the presence of unlabelled inhibitor is indicative of a saturable efflux transport system.

[3] = system: [^3H]-ADMA transport across the blood-brain and blood-CSF barriers; assay: as above; type: in vivo, mouse; settings: 100 μM unlabelled ADMA; CSF; 10 minutes; not statistically significant, n of 2
Procedure: as §1, §2, §3, §4, §5

[4] = choroid plexus, [3H] ADMA and [14C] Sucrose uptake, mean
[5] = frontal cortex, Difference (ADMA minus Sucrose), mean
[6] = frontal cortex, [3H] ADMA and [14C] Sucrose uptake, mean
[7] = hippocampus, Difference (ADMA minus Sucrose), mean
[8] = hippocampus, [3H] ADMA and [14C] Sucrose uptake, mean
[9] = hypothalamus, Difference (ADMA minus Sucrose), mean
[10] = hypothalamus, [3H] ADMA and [14C] Sucrose uptake, individual mouse
[11] = hypothalamus, [3H] ADMA and [14C] Sucrose uptake, mean
[12] = occipital cortex, Difference (ADMA minus Sucrose), mean
[13] = occipital cortex, [3H] ADMA and [14C] Sucrose uptake, mean
[14] = pineal gland, Difference (ADMA minus Sucrose), mean
[15] = pineal gland, [3H] ADMA and [14C] Sucrose uptake, mean
[16] = pituitary gland, Difference (ADMA minus Sucrose), mean
[17] = pituitary gland, [3H] ADMA and [14C] Sucrose uptake, mean
[18] = pons, Difference (ADMA minus Sucrose), mean
[19] = pons, [3H] ADMA and [14C] Sucrose uptake, mean
[20] = thalamus, Difference (ADMA minus Sucrose), mean
[21] = thalamus, [3H] ADMA and [14C] Sucrose uptake, individual mouse
[22] = thalamus, [3H] ADMA and [14C] Sucrose uptake, mean

## CN(C)C(N)=NCCC[C@H](N)C(=O)O [ADMA, N^G,N^G-dimethylarginine dihydrochloride]
[1]; choroid plexus, Difference (ADMA minus Sucrose), mean
  Kp at 20 min, 62.5 nM: 1.92
[1]; choroid plexus, [3H] ADMA and [14C] Sucrose uptake, individual mouse
  Kp at […], 62.5 nM: 0.645
[1]; [4]
  Kp at […], 62.5 nM: 0.855
  Kp at 20 min, 62.5 nM: 2.24
[1]; frontal cortex, Difference (ADMA minus Sucrose), individual mouse
  Kp at […], 62.5 nM: 0.0723
[1]; [5]
  Kp at […], 62.5 nM: 0.0986
  Kp at 20 min, 62.5 nM: 0.276
[1]; frontal cortex, [3H] ADMA and [14C] Sucrose uptake, individual mouse
  Kp at […], 62.5 nM: 0.0847
[1]; [6]
  Kp at […], 62.5 nM: 0.113
  Kp at 20 min, 62.5 nM: 0.302
[1]; hippocampus, Difference (ADMA minus Sucrose), individual mouse
  Kp at […], 62.5 nM: 0.0843
[1]; [7]
  Kp at […], 62.5 nM: 0.1
  Kp at 20 min, 62.5 nM: 0.254
[1]; hippocampus, [3H] ADMA and [14C] Sucrose uptake, individual mouse
  Kp at […], 62.5 nM: 0.0898
[1]; [8]
  Kp at […], 62.5 nM: 0.109
  Kp at 20 min, 62.5 nM: 0.273
[1]; hypothalamus, Difference (ADMA minus Sucrose), individual mouse
  Kp at […]: 0.0965
[1]; [9]
  Kp at […]: 0.0993
  Kp at 20 min, 62.5 nM: 0.364
[1]; [10]
  Kp at […]: 0.114
  Kp at 20 min, 62.5 nM: 0.38
[1]; [11]
  Kp at […]: 0.127
  Kp at 20 min, 62.5 nM: 0.416
[1]; occipital cortex, Difference (ADMA minus Sucrose), individual mouse
  Kp at […], 62.5 nM: 0.0744
[1]; [12]
  Kp at […], 62.5 nM: 0.086
  Kp at 20 min, 62.5 nM: 0.268
[1]; occipital cortex, [3H] ADMA and [14C] Sucrose uptake, individual mouse
  Kp at […], 62.5 nM: 0.083
[1]; [13]
  Kp at […], 62.5 nM: 0.0969
  Kp at 20 min, 62.5 nM: 0.293
[1]; [14]
  Kp at […], 62.5 nM: 0.235
  Kp at 20 min, 62.5 nM: 0.986
  Kp at 30 min, 62.5 nM: 0.416
  Kp at 10 min: 1.94
[1]; [15]
  Kp at […], 62.5 nM: 0.527
  Kp at 20 min, 62.5 nM: 1.32
  Kp at 10 min: 2.56
[1]; pineal gland, uptake into pineal gland, [3H] ADMA + [14C] Sucrose, Balb/c ♂, mean
  Kp at 30 min, 62.5 nM: 0.614
[1]; [16]
  Kp at […]: 0.585
  Kp at 20 min, 62.5 nM: 1.19
[1]; [17]
  Kp at […]: 0.761
  Kp at 20 min, 62.5 nM: 1.4
[1]; [18]
  Kp at […]: 0.0907
  Kp at 20 min, 62.5 nM: 0.306
[1]; pons, [3H] ADMA and [14C] Sucrose uptake, individual mouse
  Kp at […]: 0.0924
[1]; [19]
  Kp at […]: 0.117
  Kp at 20 min, 62.5 nM: 0.347
[1]; thalamus, Difference (ADMA minus Sucrose), individual mouse
  Kp at […]: 0.0741
[1]; [20]
  Kp at […]: 0.0969
  Kp at 20 min, 62.5 nM: 0.282
[1]; [21]
  Kp at […]: 0.0799
  Kp at 20 min, 62.5 nM: 0.331
[1]; [22]
  Kp at […]: 0.108
  Kp at 20 min, 62.5 nM: 0.312
[1]; multiple-time uptake studies, loss of linearity
  CNS-to-blood efflux: presence of CNS-to-blood efflux
[2]; caudate nucleus, Difference (ADMA minus Sucrose), caudate nucleus, + 100uM un-labelled ADMA, mean
  Kp at 10 min, 62.5 nM: 0.0707
[2]; caudate nucleus, [3H] ADMA + [14C] Sucrose + 100uM un-labelled ADMA, mean, read-out: uptake into caudate nucleus
  Kp at 10 min, 62.5 nM: 0.102
[2]; choroid plexus, Difference (ADMA minus Sucrose), choroid plexus, + 100uM un-labelled ADMA, individual mice
  Kp at 10 min, 62.5 nM: 0.47
[2]; choroid plexus, Difference (ADMA minus Sucrose), choroid plexus, + 100uM un-labelled ADMA, mean
  Kp at 10 min, 62.5 nM: 0.458
[2]; choroid plexus, [3H] ADMA + [14C] Sucrose + 100uM un-labelled ADMA, individual mice, read-out: uptake into choroid plexus
  Kp at 10 min, 62.5 nM: 0.617
[2]; choroid plexus, [3H] ADMA + [14C] Sucrose + 100uM un-labelled ADMA, mean, read-out: uptake into choroid plexus
  Kp at 10 min, 62.5 nM: 0.627
[2]; frontal cortex, Difference (ADMA minus Sucrose), frontal cortex, + 100uM un-labelled ADMA, mean
  Kp at 10 min, 62.5 nM: 0.0696
[2]; frontal cortex, [3H] ADMA + [14C] Sucrose + 100uM un-labelled ADMA, mean, read-out: uptake into frontal cortex
  Kp at 10 min, 62.5 nM: 0.101
[2]; hippocampus, Difference (ADMA minus Sucrose), hippocampus, + 100uM un-labelled ADMA, mean
  Kp at 10 min, 62.5 nM: 0.056
[2]; hippocampus, [3H] ADMA + [14C] Sucrose + 100uM un-labelled ADMA, mean, read-out: uptake into hippocampus
  Kp at 10 min, 62.5 nM: 0.0817
[2]; occipital cortex, Difference (ADMA minus Sucrose), occipital cortex, + 100uM un-labelled ADMA, individual mice
  Kp at 10 min, 62.5 nM: 0.0613
[2]; occipital cortex, Difference (ADMA minus Sucrose), occipital cortex, + 100uM un-labelled ADMA, mean
  Kp at 10 min, 62.5 nM: 0.0767
[2]; occipital cortex, [3H] ADMA + [14C] Sucrose + 100uM un-labelled ADMA, individual mice, read-out: uptake into occipital cortex
  Kp at 10 min, 62.5 nM: 0.0898
[2]; occipital cortex, [3H] ADMA + [14C] Sucrose + 100uM un-labelled ADMA, mean, read-out: uptake into occipital cortex
  Kp at 10 min, 62.5 nM: 0.107
[2]; pineal gland, Difference (ADMA minus Sucrose), pineal gland, + 100uM un-labelled ADMA, mean
  Kp at 10 min, 62.5 nM: 3.33
[2]; pineal gland, [3H] ADMA + [14C] Sucrose + 100uM un-labelled ADMA, mean, read-out: uptake into pineal gland
  Kp at 10 min, 62.5 nM: 3.5
[3]
  reduction of [^3H]-ADMA uptake: 89.1%
